# Reference: patent publication US10004748B2, “Methods of treating PR-positive, luminal A breast cancer with PI3K inhibitor, pictilisib” (Genentech, Inc., priority 2014, dated 2018)
# Values joined by “and” are separate entries in the source; they are usually repeats but may differ in a detail not shown here. Identical values can stand only once. Like-named read-outs stand apart in the source and are kept apart here.
# Experiments:
# [1] = system: cytochrome P450 enzymes, including CYP2C8 and CYP3A4/5; experiment: In vitro metabolism studies; assay type: in vitro ADME; conditions: preliminary results
# [2] = system: advanced or metastatic ER+ breast cancer (MBC); conditions: for Median PFS / Events (PFS): all arms on fulvestrant; for HR (PFS): GDC-0941 vs placebo, both on fulvestrant
# [3] = for Discontinued GDC-0941/placebo: Non-PD, patients (%): events unrelated to disease progression, all arms on fulvestrant
# [4] = All luminal A/B typed patients (N 74/72)
# [5] = PIK3CA Mutation Status Positive
# [6] = PIK3CA Mutation Status Wild Type
# [7] = PR+ subgroup of PAM50-typed patients (N 50/52)
# [8] = 340 mg dose in combination with fulvestrant
compound,measurement,setting,value
"CS(=O)(=O)N1CCN(Cc2cc3nc(-c4cccc5[nH]ncc45)nc(N4CCOCC4)c3s2)CC1 [GDC-0941, 4-(2-(1H-indazol-4-yl)-6-((4-(methylsulfonyl)piperazin-1-yl)methyl)thieno[3,2-d]pyrimidin-4-yl)morpholine]",in vitro metabolism,[1],"partially metabolized by multiple Phase I cytochrome P450 enzymes, including CYP2C8 and CYP3A4/5"
same,Median PFS,[2]; All Patients (ITT),6.2 Months
same,HR (PFS),[2]; [4],0.81
same,Events (PFS),[2]; [4],33/39
same,Median PFS,[2]; [4],6.18/5.09 months
same,Median PFS,[2]; Baseline ECOG Score 0,6.6 Months
same,Median PFS,[2]; Baseline ECOG Score 1,5.0 Months
same,Median PFS,[2]; Bone Only Non-Measureable Disease at Baseline No,5.0 Months
same,Events (PFS),[2]; LumA (N 46/52),15/27
same,Events (PFS),[2]; LumB (N 28/20),18/12
same,Median PFS,[2]; LumB (N 28/20),3.7 months and 3.71/3.55 months
same,HR (PFS),[2]; LumB,1.05
same,Median PFS,[2]; Measurable Disease at Baseline (Derived) Yes,5.0 Months
same,Median PFS,[2]; Num of Previous Therapies in Metastatic Setting 0,6.6 Months
same,Median PFS,[2]; Num of Previous Therapies in Metastatic Setting 1,6.2 Months
same,Median PFS,[2]; Num of Previous Therapies in Metastatic Setting 3+,3.6 Months
same,Median PFS,[2]; PIK3CA Helical Domain Mutation Status Positive,7.3 Months
same,Median PFS,[2]; PIK3CA Helical Domain Mutation Status Wild Type,6.2 Months
same,Median PFS,[2]; PIK3CA Kinase Domain Mutation Status Positive,6.2 Months
same,Median PFS,[2]; PIK3CA Kinase Domain Mutation Status Wild Type,6.6 Months
same,Median PFS,[2]; [5],6.2 Months
same,Median PFS,[2]; [6],5.8 Months
same,Median PFS,[2]; PR Status Negative,5 Months
same,Median PFS,"[2]; PR Status Negative, listed as GDC0941",5.0 Months
same,Median PFS,[2]; PR Status Positive (n=116),7.2 Months
same,Median PFS,[2]; PR Status Unknown,2.9 Months
same,HR (PFS),[2]; [7],0.47
same,Events (PFS),[2]; [7],19/32
same,Median PFS,[2]; [7],7.16/3.68 months
same,Events (PFS),"[2]; PR+, LumA (N 34/39)",9/25
same,HR (PFS),"[2]; PR+, LumA (n=73)",0.31
same,Events (PFS),"[2]; PR+, LumB (N 16/13)",10/7
same,Median PFS,"[2]; PR+, LumB (N 16/13)",3.91/3.32 months
same,HR (PFS),"[2]; PR+, LumB",0.92
same,Events (PFS),"[2]; PR−, LumA (N 9/7)",3/2
same,HR (PFS),"[2]; PR−, LumA",1.75
same,Median PFS,[2]; Primary Resistance (Derived),5.0 Months
same,Median PFS,[2]; Primary/Secondary Resistance Unknown,1.7 Months
same,Median PFS,[2]; Received Prior Adjuvant/Neo-Adjuvant Therapy No,4.1 Months
same,Median PFS,[2]; Received Prior Adjuvant/Neo-Adjuvant Therapy Yes,7.2 Months
same,Median PFS,[2]; Visceral Disease No,8.2 Months
same,Median PFS,[2]; Visceral Disease Yes,4.1 Months
same,Overall improvement of median PFS vs placebo group,[2]; patients positive for both the estrogen and progesterone receptor,over 15 weeks
same,Patients who experienced a dose modification for an adverse event,[3]; [8],66%
same,Rate of discontinuation for non-PD events,[3]; [8],31%
same,Tolerability,[3]; [8],acceptable tolerability profile
same,"Discontinued GDC-0941/placebo: Non-PD, patients (%)",[3],28 (31%)
same,"Urinary tract infection, All Grades, patients (%)","[3]; human, in vivo",9 (10%)
same,"AST increased, All Grades, patients (%)","[3]; n = 89, with fulvestrant",11 (12%)
same,"AST increased, Grade ≥3, patients (%)","[3]; n = 89, with fulvestrant",3 (3%)
same,"Abdominal pain, All Grades, patients (%)","[3]; n = 89, with fulvestrant",9 (10%)
same,"Abdominal pain, Grade ≥3, patients (%)","[3]; n = 89, with fulvestrant",2 (2%)
same,"Alopecia, All Grades, patients (%)","[3]; n = 89, with fulvestrant",10 (11%)
same,"Arthralgia, All Grades, patients (%)","[3]; n = 89, with fulvestrant",11 (12%)
same,"Constipation, All Grades, patients (%)","[3]; n = 89, with fulvestrant",14 (16%)
same,"Cough, All Grades, patients (%)","[3]; n = 89, with fulvestrant",14 (15%)
same,"Decreased appetite, All Grades, patients (%)","[3]; n = 89, with fulvestrant",20 (23%)
same,"Decreased appetite, Grade ≥3, patients (%)","[3]; n = 89, with fulvestrant",1 (1%)
same,"Diarrhea, All Grades, patients (%)","[3]; n = 89, with fulvestrant",58 (65%)
same,"Diarrhea, Grade ≥3, patients (%)","[3]; n = 89, with fulvestrant",5 (6%)
same,"Discontinued GDC-0941/placebo: Adverse Events, patients (%)","[3]; n = 89, with fulvestrant",16 (18%)
same,"Discontinued fulvestrant for non-PD, patients (%)","[3]; n = 89, with fulvestrant",15 (17%)
same,"Dry skin, All Grades, patients (%)","[3]; n = 89, with fulvestrant",9 (10%)
same,"Dysgeusia, All Grades, patients (%)","[3]; n = 89, with fulvestrant",35 (39%)
same,"Dyspepsia, All Grades, patients (%)","[3]; n = 89, with fulvestrant",10 (11%)
same,"Dyspneoa, All Grades, patients (%)","[3]; n = 89, with fulvestrant",10 (11%)
same,"Fatigue, All Grades, patients (%)","[3]; n = 89, with fulvestrant",36 (40%)
same,"Fatigue, Grade ≥3, patients (%)","[3]; n = 89, with fulvestrant",5 (6%)
same,"Headache, All Grades, patients (%)","[3]; n = 89, with fulvestrant",12 (14%)
same,"Headache, Grade ≥3, patients (%)","[3]; n = 89, with fulvestrant",1 (1%)
same,"Hot flush, All Grades, patients (%)","[3]; n = 89, with fulvestrant",12 (13%)
same,"Hyperglycemia, All Grades, patients (%)","[3]; n = 89, with fulvestrant",16 (18%)
same,"Hyperglycemia, Grade ≥3, patients (%)","[3]; n = 89, with fulvestrant",4 (5%)
same,"Injection site pain, All Grades, patients (%)","[3]; n = 89, with fulvestrant",10 (11%)
same,"Mucosal inflammation, All Grades, patients (%)","[3]; n = 89, with fulvestrant",9 (10%)
same,"Muscle spasms, All Grades, patients (%)","[3]; n = 89, with fulvestrant",10 (11%)
same,"Nausea, All Grades, patients (%)","[3]; n = 89, with fulvestrant",48 (54%)
same,"Nausea, Grade ≥3, patients (%)","[3]; n = 89, with fulvestrant",2 (2%)
same,"Pruritus, All Grades, patients (%)","[3]; n = 89, with fulvestrant",11 (12%)
same,"Pruritus, Grade ≥3, patients (%)","[3]; n = 89, with fulvestrant",1 (1%)
same,"Pyrexia, All Grades, patients (%)","[3]; n = 89, with fulvestrant",12 (13%)
same,"Stomatitis, All Grades, patients (%)","[3]; n = 89, with fulvestrant",16 (18%)
same,"Stomatitis, Grade ≥3, patients (%)","[3]; n = 89, with fulvestrant",2 (2%)
same,"Vomiting, All Grades, patients (%)","[3]; n = 89, with fulvestrant",24 (27%)
same,"Vomiting, Grade ≥3, patients (%)","[3]; n = 89, with fulvestrant",2 (2%)
"C[C@]12CC[C@@H]3c4ccc(O)cc4C[C@@H](CCCCCCCCC[S+]([O-])CCCC(F)(F)C(F)(F)F)[C@H]3[C@@H]1CC[C@@H]2O (stereo partly drawn) [fulvestrant, (7α,17β)-7-{9-[(4,4,5,5,5-pentafluoropentyl)sulfinyl]nonyl}estra-1,3,5(10)-triene-3,17-diol, reference compound]",Median PFS,[2]; All Patients (ITT),3.8 Months
same,Median PFS,[2]; Luminal A subgroup (n=98),5.26 months
same,Median PFS,[2]; [5],5.1 Months
same,Median PFS,[2]; [6],3.6 Months
same,Median PFS,[2]; PR Status Positive (n=116),3.7 Months
same,Median PFS,[2]; PR-positive and Luminal A (n=73),5.7 months
same,Response rate on the basis of local assessment,[2]; all patients,5%
same,Response rate,[2]; patients with PIK3CA-mutant tumors,3%
same,Response rate,[2]; patients without a detectable PIK3CA-mutant tumor,5%
same,"Discontinued GDC-0941/placebo: Non-PD, patients (%)",[3],10 (13%)
